The assay has as its target T1, human HPK1 (MAP4K1) (Homo sapiens, UniProt Q92918).
T1 construct: Recombinant human HPK1 kinase domain was obtained from ThermoFisher (Cat. #PV6357) and SignalChem (Cat. #M23-11G); purchased ThermoFisher; SignalChem PV6357; M23-11G
T1 sequence (Q92918 17-274 limits assumed): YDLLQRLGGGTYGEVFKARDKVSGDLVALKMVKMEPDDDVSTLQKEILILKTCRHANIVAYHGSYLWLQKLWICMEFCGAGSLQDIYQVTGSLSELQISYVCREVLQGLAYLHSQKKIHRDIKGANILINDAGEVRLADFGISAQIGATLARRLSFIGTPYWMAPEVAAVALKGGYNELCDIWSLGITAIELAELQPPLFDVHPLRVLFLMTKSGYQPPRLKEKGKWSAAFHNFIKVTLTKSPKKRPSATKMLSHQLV
The assay is described as follows: Biochemical assay for activity against HPK1 (ADP-Glo, MBP substrate). As to conditions: recombinant human HPK1 kinase domain, 1 nM enzyme, ADP-Glo luminescence. The gist of the method: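 IC50s come from ADP-Glo luminescence after a 2 h room-temperature reaction phosphorylating MBP in the presence of ATP. Compound was first preincubated 15 min with 1 nM HPK1 kinase domain, human recombinant. Buffer: 50 mM HEPES pH 7.5, 150 mM NaCl, 3 mM TCEP, 10 mM MgCl2, 0.005% Tween-20, 0.01% BSA.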
A general note: ADP-Glo first removes unused ATP, then detects ADP through luciferase.

Data on 27 molecules can be found in patent US11918582B2 (RAPT Therapeutics, Inc., priority 2021, dated 2024).

What is called IC50 is the concentration at which inhibition is half-maximal.

Structures are written as SMILES. Structures can show the parent of a compound that is named as a salt.

`COc1cc2c(cc1Nc1ncc3c(C)nn([C@H]4CC[C@@H](O)CC4)c3n1)CN(C)CC2` [Example 45, (cis)-4-(6-((6-methoxy-2-methyl-1,2,3,4-tetrahydroisoquinolin-7-yl)amino)-3-methyl-1H-pyrazolo[3,4-d]pyrimidin-1-yl)cyclohexan-1-ol]: the IC50 was less than 100 nM. The value for `CN1CCc2ccc(Nc3ncc4cnn(C)c4n3)cc2C1` [Example 5, 2-methyl-N-(1-methylpyrazolo[3,4-d]pyrimidin-6-yl)-3,4-dihydro-1H-isoquinolin-7-amine] was less than 100 nM; that for `COc1cc2c(cc1Nc1ncc3cnn(CC4(C)CC4)c3n1)CN(C)CC2` [Example 203, 6-methoxy-2-methyl-N-(1-((1-methylcyclopropyl)methyl)-1H-pyrazolo[3,4-d]pyrimidin-6-yl)-1,2,3,4-tetrahydroisoquinolin-7-amine] was less than 100 nM; that for `CCOC(=O)[C@@H]1CCC[C@H](n2ncc3cnc(Nc4cc5c(cc4OC)CCN(C)C5)nc32)C1` (relative stereo) [Example 21, ethyl cis-3-(6-((6-methoxy-2-methyl-1,2,3,4-tetrahydroisoquinolin-7-yl)amino)-1H-pyrazolo[3,4-d]pyrimidin-1-yl)cyclohexane-1-carboxylate] was less than 100 nM. The value for `COc1cc2c(cc1Nc1ncc3cnn(C[C@@H]4C[C@H](C(F)(F)F)CN4C(C)=O)c3n1)CN(C)CC2` [Example 144, 1-[(2S,4S)-2-[[6-[(6-methoxy-2-methyl-3,4-dihydro-1H-isoquinolin-7-yl)amino]pyrazolo[3,4-d]pyrimidin-1-yl]methyl]-4-(trifluoromethyl)pyrrolidin-1-yl]ethan-1-one] was 100 to 250 nM; that for `COc1cc2c(cc1Nc1ncc3cnn(C[C@@H]4[C@@H](C)[C@@H](O)CN4C(C)=O)c3n1)CN(C)CC2` [Example 163, 1-[(2S,3R,4S)-4-hydroxy-2-[[6-[(6-methoxy-2-methyl-3,4-dihydro-1H-isoquinolin-7-yl)amino]pyrazolo[3,4-d]pyrimidin-1-yl]methyl]-3-methyl-pyrrolidin-1-yl]ethenone] was less than 100 nM. In the case of `COc1cc2c(cc1Nc1ncc3cnn([C@H](C)CCO)c3n1)CN(C)CC2` [Example 99, (3R)-3-[6-[(6-methoxy-2-methyl-3,4-dihydro-1H-isoquinolin-7-yl)amino]pyrazolo[3,4-d]pyrimidin-1-yl]butan-1-ol], the IC50 is less than 100 nM. `COc1cc2c(cc1Nc1ncc3cnn(C[C@H]4C[C@H]4C)c3n1)CN(C)CC2` (racemic) [Example 202, 6-methoxy-2-methyl-N-(1-((cis-2-methylcyclopropyl)methyl)-1H-pyrazolo[3,4-d]pyrimidin-6-yl)-1,2,3,4-tetrahydroisoquinolin-7-amine, Trifluoroacetate Salt]: the IC50 is less than 100 nM.

Regarding `COc1cc2c(cc1Nc1ncc3cnn(C[C@@H]4[C@H]5C[C@H]5CN4C(C)=O)c3n1)CN(C)CC2` [Example 220, 1-[(1S,2S,5R)-2-[[6-[(6-methoxy-2-methyl-3,4-dihydro-1H-isoquinolin-7-yl)amino]pyrazolo[3,4-d]pyrimidin-1-yl]methyl]-3-azabicyclo[3.1.0]hexan-3-yl]ethanone], the IC50 was less than 100 nM. Regarding `COc1cc2c(cc1Nc1ncc3cnn(C4CC5(CCN(S(C)(=O)=O)CC5)C4)c3n1)CN(C)CC2` [Example 82, 6-methoxy-2-methyl-N-[1-(7-methylsulfonyl-7-azaspiro[3.5]nonan-2-yl)pyrazolo[3,4-d]pyrimidin-6-yl]-3,4-dihydro-1H-isoquinolin-7-amine], the IC50 is less than 100 nM.

Regarding `COc1cc2c(cc1Nc1ncc3cnn(C[C@@H]4CC[C@H](C)N4C(C)=O)c3n1)CN(C)CC2` [Example 171, 1-[(2S,5S)-2-[[6-[(6-methoxy-2-methyl-3,4-dihydro-1H-isoquinolin-7-yl)amino]pyrazolo[3,4-d]pyrimidin-1-yl]methyl]-5-methyl-pyrrolidin-1-yl]ethanone], the IC50 was less than 100 nM. Turning to `COc1cc2c(cc1Nc1ncc3cnn([C@H]4CC[C@@H](C(N)=O)CC4)c3n1)CN(C)CC2` [Example 27, (1s,4s)-4-(6-((6-methoxy-2-methyl-1,2,3,4-tetrahydroisoquinolin-7-yl)amino)-1H-pyrazolo[3,4-d]pyrimidin-1-yl)cyclohexane-1-carboxamide], the IC50 is less than 100 nM. To `COc1nc2c(cc1Nc1ncc3cnn([C@H]4CC[C@H](O)CC4)c3n1)CN(C)CC2` [Example 187, (1r,4r)-4-(6-((2-methoxy-6-methyl-5,6,7,8-tetrahydro-1,6-naphthyridin-3-yl)amino)-1H-pyrazolo[3,4-d]pyrimidin-1-yl)cyclohexan-1-ol] belongs less than 100 nM; to `COc1cc2c(cc1Nc1ncc3cnn([C@@H]4C[C@@H]5C[C@H]4N(C(C)=O)C5)c3n1)CN(C)CC2` (relative stereo) [Example 193, rel-1-((1R,4S,6R)-6-(6-((6-methoxy-2-methyl-1,2,3,4-tetrahydroisoquinolin-7-yl)amino)-1H-pyrazolo[3,4-d]pyrimidin-1-yl]-2-azabicyclo[2.2.1]heptan-2-yl)ethan-1-one], less than 100 nM; to `COc1cc2c(cc1Nc1ncc3cnn(C[C@@H]4C[C@H](O)CN4C(C)=O)c3n1)CN(C)CC2` [Example 221, 1-((2S,4S)-4-hydroxy-2-((6-((6-methoxy-2-methyl-1,2,3,4-tetrahydroisoquinolin-7-yl)amino)-1H-pyrazolo[3,4-d]pyrimidin-1-yl)methyl)pyrrolidin-1-yl)ethan-1-one], less than 100 nM.

As to `CCOC(=O)Cn1ncc2cnc(Nc3ccc4c(c3)CN(C)CC4)nc21` [Example 9, Ethyl 2-[6-[(2-methyl-3,4-dihydro-1H-isoquinolin-7-yl)amino]pyrazolo[3,4-d]pyrimidin-1-yl]acetate], the IC50 is less than 100 nM. Take `COc1cc2c(cc1Nc1ncc3cnn(C[C@@H]4CCCN4C(=O)C(F)F)c3n1)CN(C)CC2` [Example 186, (S)-2,2-difluoro-1-(2-((6-((6-methoxy-2-methyl-1,2,3,4-tetrahydroisoquinolin-7-yl)amino)-1H-pyrazolo[3,4-d]pyrimidin-1-yl)methyl)pyrrolidin-1-yl)ethan-1-one]: the IC50 is less than 100 nM. For the molecule `COc1cc2c(cc1Nc1ncc3cnn(C[C@@H]4CCCN4S(N)(=O)=O)c3n1)CN(C)CC2` [Example 190, (S)-2-((6-((6-methoxy-2-methyl-1,2,3,4-tetrahydroisoquinolin-7-yl)amino)-1H-pyrazolo[3,4-d]pyrimidin-1-yl)methyl)pyrrolidine-1-sulfonamide hydrochloride], the IC50 is less than 100 nM. As to `COc1cc2c(cc1Nc1ncc3c(C)nn([C@H]4CC[C@@H](O)C4)c3n1)CN(C)CC2` (relative stereo) [Example 149, (rel-1S,3R)-3-(6-((6-methoxy-2-methyl-1,2,3,4-tetrahydroisoquinolin-7-yl)amino)-3-methyl-1H-pyrazolo[3,4-d]pyrimidin-1-yl)cyclopentan-1-ol], the IC50 is less than 100 nM. As for `COc1cc2c(cc1Nc1ncc3cnn(C[C@H]4[C@@H](O)CCN4C(C)=O)c3n1)CN(C)CC2` [Example 131], the IC50 was more than 251 nM. With `COc1cc2c(cc1Nc1ncc3cnn([C@H]4CC[C@@H](C(=O)O)CC4)c3n1)CN(C)CC2` [Example 26, (1s,4s)-4-(6-((6-methoxy-2-methyl-1,2,3,4-tetrahydroisoquinolin-7-yl)amino)-1H-pyrazolo[3,4-d]pyrimidin-1-yl)cyclohexane-1-carboxylic acid], the IC50 was less than 100 nM. As to `COc1nc2c(cc1Nc1ncc3cnn([C@H]4CC[C@H](CO)CC4)c3n1)CN(C)CC2` [Example 170], the IC50 is less than 100 nM. As to `COc1cc2c(cc1Nc1ncc3cnn([C@H]4CC[C@H](CO)CC4)c3n1)CN(CCF)CC2` [Example 169, [4-[6-[[2-(2-fluoroethyl)-6-methoxy-3,4-dihydro-1H-isoquinolin-7-yl]amino]pyrazolo[3,4-d]pyrimidin-1-yl]cyclohexyl]methanol], the IC50 was less than 100 nM. For `COc1cc2c(cc1Nc1ncc3cnn(C4CCCN(S(C)(=O)=O)C4)c3n1)CN(C)CC2` (stereo not drawn) [Example 108, 6-methoxy-2-methyl-N-(1-(1-(methylsulfonyl)piperidin-3-yl)-1H-pyrazolo[3,4-d]pyrimidin-6-yl)-1,2,3,4-tetrahydroisoquinolin-7-amine], the IC50 was less than 100 nM. Turning to `COc1cc2c(cc1Nc1ncc3cnn(C4C=CCCC4)c3n1)CN(C)CC2` (stereo not drawn) [Example 34, N-(1-(cyclohex-2-en-1-yl)-1H-pyrazolo[3,4-d]pyrimidin-6-yl)-6-methoxy-2-methyl-1,2,3,4-tetrahydroisoquinolin-7-amine], the IC50 was less than 100 nM.

Take `COc1cc2c(cc1Nc1ncc3cnn(C[C@@H]4CCCN4C(C)=O)c3n1)[C@@H](C)N(C)CC2` [Example 184, 1-((S)-2-((6-(((R)-6-methoxy-1,2-dimethyl-1,2,3,4-tetrahydroisoquinolin-7-yl)amino)-1H-pyrazolo[3,4-d]pyrimidin-1-yl)methyl)pyrrolidin-1-yl)ethan-1-one]: the IC50 is less than 100 nM. Consider `COC[C@H]1CC[C@H](n2ncc3cnc(Nc4cc5c(cc4OC)CCN(C)C5)nc32)CC1` [Example 175, 6-methoxy-N-[trans-1-[4-(methoxymethyl)cyclohexyl]pyrazolo[3,4-d]pyrimidin-6-yl]-2-methyl-3,4-dihydro-1H-isoquinolin-7-amine], for which the IC50 was less than 100 nM.
